Results: patent US20260070922A1, “PYRAZOLE AND IMIDAZOLE DERIVATIVES AS DUAL OREXIN AND KAPPA-OPIOID RECEPTORS MODULATORS COMPOSITION, METHODS FOR TREATING NEUROLOGICAL AND PSYCHIATRIC DISORDERS” (HAGER BIOSCIENCES, LLC, priority 2022, published 2026)

Legend:
[1] = molecular target: T1, human k-opioid receptor (kOR) (Homo sapiens, UniProt P41145); test: Human k-opioid (KOP) receptor (agonist radioligand [3H]U-69593) binding assay, transfected RBL cell membranes; settings: for IC50: first value of IC50/Ki cell; for inhibition at 1 µM: read-out: KOR % Inh. @ 1 uM
T1 construct: expressed in transfected cells; host or cells: RBL cells (membrane homogenates)
Summary of the method: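 Membranes from transfected RBL cells (~80 μg protein) incubated 60 min at 22° C with 0.5 nM [3H]U-69593 in 50 mM Tris-HCl pH 7.4, 10 mM MgCl2, 1 mM EDTA. Nonspecific binding defined with 10 μM naloxone; filtration and scintillation counting. Values are percent inhibition of specific radioligand binding.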

[2] = molecular target: T1, human k-opioid receptor (kOR); test: as above; settings: second value of IC50/Ki cell
[3] = molecular target: T2, human orexin-2 receptor (OX2R) (Homo sapiens, UniProt O43614); test: In vitro orexin antagonism assay: intracellular calcium measurement (FLIPR), orexin-A 3 nM as agonist; assay type: cell-based; settings: for inhibition at 1 µM: read-out: OX2R, % Inh. @ 1 uM; for Kb: second value of IC50/Kb cell; for IC50: first value of IC50/Kb cell
T2 construct: expressed in transfected cells; host or cells: CHO cells (G418 selection)
T2 sequence (O43614 1-444): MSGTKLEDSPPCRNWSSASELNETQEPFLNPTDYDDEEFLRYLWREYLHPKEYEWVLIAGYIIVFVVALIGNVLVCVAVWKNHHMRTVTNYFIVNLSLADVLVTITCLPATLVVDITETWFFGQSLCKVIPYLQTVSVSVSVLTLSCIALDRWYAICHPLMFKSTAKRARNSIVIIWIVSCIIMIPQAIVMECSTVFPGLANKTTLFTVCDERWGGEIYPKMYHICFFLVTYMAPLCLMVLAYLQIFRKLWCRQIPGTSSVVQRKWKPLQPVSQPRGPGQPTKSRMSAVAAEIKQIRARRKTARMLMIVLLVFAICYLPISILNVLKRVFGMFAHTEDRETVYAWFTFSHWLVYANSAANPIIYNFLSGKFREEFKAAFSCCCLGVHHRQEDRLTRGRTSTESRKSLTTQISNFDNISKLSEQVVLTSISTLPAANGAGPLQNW
Summary of the method: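 Fluorescence peak on 3 nM orexin-A challenge, read by FLIPR and compared with vehicle, yields IC50 (geometric mean when repeated; may be normalized to an on-plate reference). Antagonists were added 120 min beforehand to fluo-4-loaded recombinant CHO cells expressing human OX1R or OX2R.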

[4] = molecular target: T3, Orexin type 1 (OX1R) receptor (Homo sapiens, UniProt O43613); test: as above; assay type: cell-based; settings: for inhibition at 1 µM: read-out: OX1R, % Inh. @ 1 uM; for IC50: first value of IC50/Kb cell; for Kb: second value of IC50/Kb cell
T3 construct: expressed in transfected cells; host or cells: CHO cells (G418 selection)
T3 sequence (O43613 1-425): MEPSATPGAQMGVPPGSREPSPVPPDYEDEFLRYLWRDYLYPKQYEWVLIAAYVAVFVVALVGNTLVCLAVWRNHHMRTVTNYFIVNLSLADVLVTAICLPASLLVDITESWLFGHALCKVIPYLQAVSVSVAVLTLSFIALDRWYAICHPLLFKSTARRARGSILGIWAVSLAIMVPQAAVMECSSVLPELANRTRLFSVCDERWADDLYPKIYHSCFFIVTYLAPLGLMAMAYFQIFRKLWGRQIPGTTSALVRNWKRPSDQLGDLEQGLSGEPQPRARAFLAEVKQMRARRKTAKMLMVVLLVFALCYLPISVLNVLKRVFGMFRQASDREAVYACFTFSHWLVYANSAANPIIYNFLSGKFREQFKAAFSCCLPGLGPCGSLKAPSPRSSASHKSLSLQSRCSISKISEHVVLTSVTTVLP
Summary of the method: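 CHO cells expressing the human orexin receptor were loaded with 3 μM fluo-4 AM plus 5 mM probenecid, then exposed to antagonist for 120 min before 3 nM orexin-A (final) was added on a FLIPR.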

T1 sequence (P41145 whole entry): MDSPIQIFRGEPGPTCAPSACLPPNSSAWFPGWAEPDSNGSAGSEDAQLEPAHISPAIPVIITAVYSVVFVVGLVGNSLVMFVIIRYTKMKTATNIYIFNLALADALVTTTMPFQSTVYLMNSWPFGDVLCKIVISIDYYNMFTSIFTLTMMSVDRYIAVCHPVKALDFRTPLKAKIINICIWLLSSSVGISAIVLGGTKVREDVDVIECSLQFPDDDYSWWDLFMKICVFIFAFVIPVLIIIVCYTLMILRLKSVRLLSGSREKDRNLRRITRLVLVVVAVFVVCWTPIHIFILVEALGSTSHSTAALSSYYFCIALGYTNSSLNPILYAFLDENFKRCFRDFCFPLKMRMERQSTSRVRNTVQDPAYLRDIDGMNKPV

Structure (SMILES) | IC50 [1] | inhibition at 1 µM [1] | Ki [2] | inhibition at 1 µM [3] | inhibition at 1 µM [4] | IC50 [4] | Kb [4] | Kb [3] | IC50 [3] | OX2R, % Inh. @ 1 uM ([3]; @ 1 uM) | KOR % Inh. @ 1 uM ([1]; @ 1 uM) | OX1R, % Inh. @ 1 uM ([4]; @ 1 uM)
CCc1cnc(NC[C@@H]2[C@H](C)CCCN2C(=O)c2c(-c3ccccc3)nn3ccccc23)nc1 [Example 4] | 1.56 µM | 52% | 0.854 µM |  |  |  |  |  |  |  |  | 
C[C@@H]1CCCN(C(=O)c2c(-c3ccccc3)nn3c2COCC3)[C@@H]1CNc1ccc(C(F)(F)F)cn1 [Example 7] | 1.47 µM | 35% | 0.799 µM |  |  |  |  |  |  |  |  | 
C[C@@H]1CCCN(C(=O)c2c(-c3ccccc3)nc3ccccn23)[C@@H]1CNc1ccc(C(F)(F)F)cn1 [Example 8] | 1.98 µM | 38% | 1.08 µM | 21.4% | 100% |  |  |  |  |  |  | 
O=C(c1c(-c2ccccc2)nn2ccccc12)N1CCC[C@H]1CNc1ccc(C(F)(F)F)cn1 [Example 10] | 6.13 µM | 26% | 3.34 µM |  |  | 0.004 µM | 0.001 µM |  |  |  |  | 
O=C(c1c(-c2ccccc2)nn2ccccc12)N1CCC[C@H]1Cn1ccc(-c2ccccc2)n1 [Example 13] | 1.01 µM | 56% | 0.549 µM | 98.5% |  |  |  | 0.01 µM |  |  |  | 
O=C(c1c(-c2ccccc2)nn2ccccc12)N1CCC[C@H]1COc1ccc(C(F)(F)F)cn1 [Example 20] | 3.5 µM | 33% | 1.91 µM |  |  |  |  |  |  |  |  | 
O=C(c1c(-c2ccccc2)nn2ccccc12)N1CCCC[C@H]1COc1ccc(C(F)(F)F)cn1 [Example 24] | 1.1 µM | 52% | 0.63 µM | 60.1% | 98% | 0.005 µM | 0.001 µM |  |  |  |  | 
C[C@@H]1CCCN(C(=O)c2c(-c3ccccc3)nc3ncccn23)[C@@H]1CNc1ccc(C(F)(F)F)cn1 [Example 34] | 0.73 µM | 57% | 0.4 µM | 1.8% | 79.8% | 0.053 µM | 0.011 µM |  |  |  |  | 
C[C@@H]1CCCN(C(=O)c2c(-c3ccc(F)cc3)nn3ccccc23)[C@@H]1CNc1ccc(C(F)(F)F)cn1 [Example 40] | 0.74 µM | 59% | 0.4 µM | 7.1% | 98.4% | 0.029 µM | 0.006 µM |  |  |  |  | 
O=C(c1c(-c2ccc(F)cc2)nn2ccccc12)N1CCC[C@H]1Cn1ccc(-c2ccccc2)n1 [Example 44] | 0.69 µM | 55% | 0.37 µM | 72.3% | 98.8% | 0.005 µM | 0.001 µM | 0.031 µM | 0.22 µM |  |  | 
O=C(c1c(-c2ccccc2)nc2ccc(F)cn12)N1CCC[C@H]1Cn1ccc(-c2ccc(F)cc2)n1 [Example 49] | 0.047 µM | 92% | 0.025 µM | 79.3% | 102% | 0.009 µM | 0.002 µM | 0.007 µM | 0.052 µM |  |  | 
O=C(c1c(-c2ccccc2)nc2cc(F)ccn12)N1CCC[C@H]1Cn1ccc(-c2ccc(F)cc2)n1 [Example 50] | 0.59 µM | 59% | 0.32 µM | 89% | 99% |  |  | 0.003 µM | 0.018 µM |  |  | 
O=C(c1c(-c2ccccc2)nc2cc(C(F)(F)F)ccn12)N1CCC[C@H]1Cn1ccc(-c2ccc(F)cc2)n1 [Example 53] | 0.056 µM | 93% | 0.031 µM | 95.5% | 97.6% | 0.021 µM | 0.004 µM | 0.005 µM | 0.033 µM |  |  | 
O=C(c1c(-c2ccccc2F)nn2ccccc12)N1CCC[C@H]1Cn1cc(-c2ccccc2)cn1 [Example 69] | 0.19 µM | 76% | 0.1 µM | 86% | 100% | 0.009 µM | 0.002 µM | 0.004 µM | 0.023 µM |  |  | 
O=C(c1c(-c2ccccc2)nc2ccc(F)cn12)N1CCC[C@H]1Cn1cc(-c2ccccc2)cn1 [Example 75] | 0.14 µM | 86% | 0.077 µM | 76% | 93% | 0.16 µM | 0.033 µM | 0.028 µM | 0.16 µM |  |  | 
O=C(c1c(-c2ccccc2)nc2cc(C(F)(F)F)ccn12)N1CCC[C@H]1Cn1cc(-c2ccccc2)cn1 [Example 80] | 0.046 µM | 95% | 0.025 µM | 78% | 87% | 0.19 µM | 0.04 µM | 0.014 µM | 0.079 µM |  |  | 
O=C(c1c(-c2ccccc2)nc2ccc(F)cn12)N1CCC[C@H]1Cn1ccc(-c2ccc(F)cn2)n1 [Example 92] | 0.17 µM | 79% | 0.094 µM | 61% | 75% | 0.25 µM | 0.052 µM | 0.16 µM | 0.93 µM |  |  | 
O=C(c1c(-c2ccccc2)nc2cc(C(F)(F)F)ccn12)N1CCC[C@H]1Cn1ccc(-c2ccc(F)cn2)n1 [Example 94] | 0.21 µM | 74% | 0.12 µM | 76% | 88% | 0.037 µM | 0.008 µM | 0.006 µM | 0.036 µM |  |  | 
O=C(c1c(-c2ccccc2F)nn2ccccc12)N1[C@H](Cn2ccc(-c3ccc(F)cc3)n2)C[C@@H]2C[C@@H]21 [Example 95] | 0.18 µM | 87% | 0.099 µM | 50% | 91% | 0.095 µM | 0.02 µM |  |  |  |  | 
O=C(c1c(-c2ccccc2)nc2ccc(F)cn12)N1[C@H](Cn2ccc(-c3ccc(F)cc3)n2)C[C@@H]2C[C@@H]21 [Example 97] | 0.08 µM | 91% | 0.044 µM | 37% | 70% | 0.16 µM | 0.033 µM |  |  |  |  | 
O=C(c1c(-c2ccccc2F)nn2ccccc12)N1[C@H](Cn2ccc(-c3ccc(F)cn3)n2)C[C@@H]2C[C@@H]21 [Example 107] | 0.91 µM | 61% | 0.5 µM | 55% | 92% | 0.083 µM | 0.018 µM | 0.09 µM | 0.52 µM |  |  | 
O=C(c1nn2ccccc2c1-c1ccccc1)N1CCC[C@H]1Cn1cc(-c2ccc(F)cn2)cn1 [Example 112] | 0.72 µM | 70% | 0.39 µM | 86% | 100% | 0.004 µM | 0.0008 µM | 0.003 µM | 0.015 µM |  |  | 
O=C(c1nn2c(c1-c1ccccn1)COCC2)N1CCC[C@H]1Cn1cc(-c2ccc(F)cn2)cn1 [Example 198] |  |  |  |  |  | 0.14 µM | 0.029 µM |  |  | 50% | 8% | 84%
O=C(c1nn2c(c1-c1ccccn1)OCCC2)N1[C@H](Cn2ccc(-c3ccc(F)cn3)n2)C[C@@H]2C[C@@H]21 [Example 202] |  | 3% |  | 14% | 87% | 0.064 µM | 0.014 µM |  |  |  |  | 
O=C(c1nc2ccccn2c1-c1ccccn1)N1CCC[C@H]1Cn1cc(-c2ccc(F)cn2)cn1 [Example 208] |  | 0% |  | 52% | 100% | 0.039 µM | 0.008 µM |  |  |  |  | 
